# Experimental data: patent US7098247B2, “Arylene-carboxylic acid (2-amino-phenyl)-amide derivatives” (Hoffmann-La Roche Inc., priority 2002, dated 2006)
# Tested on: histone deacetylase (HDAC)
# Assay: cellular acetylation assay (acetylation of histones monitored in PC3 cells, ELISA)
# Format: cell-based
# Settings: PC3 human prostate carcinoma cells; compound 1 uM; 24 h incubation; antibodies against acetylated histone H3 or H4
# Method: Therein, acetylation of histones is monitored in PC3 cells. High acetylation means inhibition of histone deacetylase by compounds. Cell viability is monitored in parallel to estimate the cytotoxicity of the compounds.
# PC3 cells, human prostate carcinoma cells, are seeded as 1800 cells per well of 384-well microtiterplate in RPMI 1640 (including 5% FCS, 2 mM glutamine and pen/strep). After 48 h at 37° C., pre-diluted compounds are added at a final concentration of 1 uM. Compounds are pre-diluted 1:10 in dimethyl sulfoxide (DMSO) or medium resulting in a final concentration of DMSO of 0.5%.
# After 24 h, incubation the cell viability is determined by adding cell proliferation reagent WST1. Another 60 min. later, the optical density (OD) is measured (450 nm versus 690 nm).
# After WST1 assay, the cell layer is prepared for the ELISA reaction. Medium is aspirated and cells are fixed in ethanol at −20° C. for 60 min. After washing with PBS/Tween, the blocking solution (PBS/ 5% FCS/Tween) is added and the cell layer is washed again. Antibodies against histone H3 or H4 (Anti-Acetylated Histone (rabbit polyclonal IgG), Upstate Biotechnologie) are added at a dilution of 1:200 for 60 min at 37° C. As a second antibody, goat anti-rabbit IgG(H+L) human IgG adsorbed-HRP conjugate (Dako) is used (1:2000 diluted). Cells are washed 3 times and the peroxidase substrate ABTS is allowed to react for 30–60 min at 37° C. Oxalic acid stops the reaction, and the OD is measured at 405 nm.
# The percentage of acetylation is calculated after subtraction of blank O.D.s: […]
row,SMILES,"cell acetylation (PC3, 1 μM) [% of control]"
1,"CC(C)CNC(=O)NCc1ccc(C(=O)Nc2ccccc2N)s1 [Example 6-13, 5-(3-Isobutyl-ureidomethyl)-thiophene-2-carboxylic acid (2-amino-phenyl)-amide]",178 % of control
2,"CCCCCC(C)NC(=O)NCc1ccc(C(=O)Nc2ccccc2N)cc1 (stereo not drawn) [Example 6-25, N-(2-Amino-phenyl)-4-[3-(1-methyl-hexyl)-ureidomethyl]-benzamide]",192 % of control
3,"CCOCC(=O)NCc1ccc(C(=O)Nc2ccccc2N)s1 [Example 4-3, 5-[(2-Ethoxy-acetylamino)-methyl]-thiophene-2-carboxylic acid (2-amino-phenyl)-amide]",194 % of control
4,"CN(C)CC(C)(C)CNC(=O)NCc1ccc(C(=O)Nc2ccccc2N)cc1 [Example 6-19, N-(2-Amino-phenyl)-4-[3-(3-dimethylamino-2,2-dimethyl-propyl)-ureidomethyl]-benzamide]",205 % of control
5,"Nc1ccccc1NC(=O)c1ccc(CNC(=O)NCC2CC2)cc1 [Example 6-29, N-(2-Amino-phenyl)-4-(3-cyclopropylmethyl-ureidomethyl)-benzamide]",187 % of control
6,"Nc1ccccc1NC(=O)c1ccc(CNC(=O)CC2C=CCC2)cc1 (stereo not drawn) [Example 4-31, N-(2-Amino-phenyl)-4-[(2-cyclopent-2-enyl-acetylamino)-methyl]-benzamide]",176 % of control
7,"CCOCCCNC(=O)NCc1ccc(C(=O)Nc2ccccc2N)cc1 [Example 6-26, N-(2-Amino-phenyl)-4-[3-(3-ethoxy-propyl)-ureidomethyl]-benzamide]",179 % of control
8,"CC(C)OCCCNC(=O)NCc1ccc(C(=O)Nc2ccccc2N)cc1 [Example 6-28, N-(2-Amino-phenyl)-4-[3-(3-isopropoxy-propyl)-ureidomethyl]-benzamide]",177 % of control
9,"CCCC(=O)NCc1ccc(C(=O)Nc2ccccc2N)s1 [Example 4-6, 5-(Butyrylamino-methyl)-thiophene-2-carboxylic acid (2-amino-phenyl)-amide]",238 % of control
10,"C=CCNC(=O)NCc1ccc(C(=O)Nc2ccccc2N)s1 [Example 6-12, 5-[(3-Allyl-ureido)-methyl]-thiophene-2-carboxylic acid (2-amino-phenyl)-amide]",170 % of control
11,"Nc1ccccc1NC(=O)c1ccc(CNC(=O)C2CCCC2)s1 [Example 4-1, 5-[(Cyclopentanecarbonyl-amino)-methyl]-thiophene-2-carboxylic acid (2-amino-phenyl)-amide]",170 % of control
12,"C=CCNC(=O)NCc1ccc(C(=O)Nc2ccccc2N)cc1 [Example 6-27, 4-[(3-Allyl-ureido)-methyl]-N-(2-amino-phenyl)-benzamide]",175 % of control
13,"CC(=O)Nc1ccc(C(=O)Nc2ccccc2N)cc1 [CI 994, reference compound]",152 % of control
14,"CCC(C)CNC(=O)NCc1ccc(C(=O)Nc2ccccc2N)s1 (stereo not drawn) [Example 6-8, 5-[3-(2-Methyl-butyl)-ureidomethyl]-thiophene-2-carboxylic acid (2-amino-phenyl)-amide]",198 % of control
15,"CCCCCNC(=O)NCc1ccc(C(=O)Nc2ccccc2N)cn1 [Example 6-38, N-(2-Amino-phenyl)-6-[(3-pentyl-ureido)-methyl]-nicotinamide]",178 % of control
